Test results taken from PMC7729925, “Selective hepatitis B and D virus entry inhibitors from the group of pentacyclic lupane-type betulin-derived triterpenoids” (Scientific Reports, 2020).
Values joined by “and” are separate entries in the source; they are usually repeats but may differ in a detail not shown here. Equal values may be shown once.

Columns and labels:
NTCP [1] = target: T1, NTCP (Homo sapiens, UniProt Q14973); assay: [3H]TC transport (bile acid uptake) inhibition in NTCP-HEK293 cells; format: cell-based; conditions: for [3H]TC transport inhibition (in words): 0.1–1,000 µM
T1 construct: expressed in transfected cells
T1 sequence (Q14973 1-349): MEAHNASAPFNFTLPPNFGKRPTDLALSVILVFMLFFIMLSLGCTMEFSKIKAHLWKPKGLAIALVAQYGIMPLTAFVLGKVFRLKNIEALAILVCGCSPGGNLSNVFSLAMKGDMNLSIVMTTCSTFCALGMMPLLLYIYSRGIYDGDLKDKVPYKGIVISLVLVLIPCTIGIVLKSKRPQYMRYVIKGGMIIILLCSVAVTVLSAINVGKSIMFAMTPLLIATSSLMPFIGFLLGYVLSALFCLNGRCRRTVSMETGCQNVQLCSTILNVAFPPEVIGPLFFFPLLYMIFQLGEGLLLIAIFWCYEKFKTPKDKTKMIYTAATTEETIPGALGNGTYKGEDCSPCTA
Method: (§1) The major goal of the present study was to analyze in parallel the effect of inhibitors on both, bile acid transport via NTCP and myr-preS1_2-48 lipopeptide binding to NTCP in a cell culture system. […] NTCP-HEK293 cells were seeded onto 96-well plates and were incubated with tetracycline in order to induce expression of the human NTCP protein. […] Experiments were performed with solvent alone (set to 100%) and with increasing concentrations of the indicated inhibitors. […] Half maximal inhibitory concentrations (IC50) were calculated by nonlinear regression analysis using the equation log(inhibitor) versus response (GraphPad Prism). […] Data represent means ± SD of quadruplicate determinations of representative experiments. […] In parallel, [^3H]preS1 peptide binding experiments were performed with a tritium-labelled myr-preS1_2-48 lipopeptide -HBV subgenotype D3- that was purchased from Pharmaron (120 Ci/mmol, 1 mCi/ml, Cardiff, UK). […] Experiments were stopped after 10 min by two-times washing with ice-cold PBS. For 0% uptake/binding control, the NTCP-HEK293 cells were not induced with tetracycline (-tet). […] Transport rates and [^3H]preS1 binding were determined in counts per minute (cpm). […] IC50 values were calculated from quadruplicate determinations by GraphPad Prism 6 (GraphPad, San Diego, CA, USA).

NTCP [2] = target: T1, NTCP; assay: [3H]preS1 (myr-preS1_2-48 lipopeptide) binding inhibition in NTCP-HEK293 cells; conditions: for IC50: NTCP-HEK293 cells; for Selectivity index: ratio of mean IC50 [3H]TC transport inhibition / IC50 [3H]preS1 binding inhibition
Method: as §1

[3] = 95% confidence interval, inhibition of 1 µM [3H]TC uptake, NTCP-HEK293 cells, 10 min, 37 °C, read-out: IC50 ([3H]TC uptake)
[4] = IC50 ([3H]preS1 binding), 95% confidence interval, inhibition of 5 nM [3H]preS1 binding, 10 min, 37 °C
[5] = 95% confidence interval, inhibition of 5 nM [3H]preS1 binding, 10 min, 37 °C, read-out: IC50 ([3H]preS1 binding)
[6] = mean IC50, 5 nM [3H]preS1, standard pH 7.4, read-out: IC50 [3H]preS1 binding inhibition
[7] = mean IC50, […] µM [3H]TC, NTCP-HEK293 cells, standard pH 7.4, read-out: IC50 [3H]TC transport inhibition

Compound | IC50 (NTCP [1]; [3]) [µM] | IC50 (NTCP [2]; [5]) [µM] | IC50 (NTCP [2]; [6]) | Selectivity index (NTCP [2]) | also measured
C=C(C)[C@@H]1CC[C@]2(C)CC[C@]3(C)[C@H](CC[C@@H]4[C@@]5(C)CC[C@H](O)C(C)(C)[C@@H]5CC[C@]43C)[C@@H]12 [Compound 3, Lupeol] | > 1000 |  |  |  | IC50 (NTCP [1]): > 1000 µM; IC50 (NTCP [2]; [4]): 26.9 to 97.9 µM
C=C(C)[C@@H]1CC[C@]2(C(=O)OC)CC[C@]3(C)[C@H](CC[C@@H]4[C@@]5(C)CC[C@H](O)C(C)(C)[C@@H]5CC[C@]43C)[C@@H]12 [Compound 5, Methyl betulinate] |  |  |  |  | IC50 (NTCP [1]; read-out: IC50 ([3H]TC uptake)): 47.1 to 100 µM; IC50 (NTCP [2]; [4]): 12.7 to 83.5 µM
C=C(C)C1CCC2(C=NO)CCC3(C)C(CCC4C5(C)CCC(O)C(C)(C)C5CCC43C)C12 (stereo not drawn) [Compound 6, Betulinaldehyde oxime] | 360 to 759 | 6.61 to 18.3 | 11 µM | 48 | 
C=C(C)[C@@H]1CC[C@]2(COC(=O)CBr)CC[C@]3(C)[C@H](CC[C@@H]4[C@@]5(C)CC[C@H](O)C(C)(C)[C@@H]5CC[C@]43C)[C@@H]12 [Compound 7, 28-O-(Bromoacetyl)betulin] | 63.5 to 126 | 5.28 to 11.1 |  | 11 | 
C=C(C)[C@@H]1CC[C@]2(COC(=O)CCC(=O)O)CC[C@]3(C)[C@H](CC[C@@H]4[C@@]5(C)CC[C@H](O)C(C)(C)[C@@H]5CC[C@]43C)[C@@H]12 [Compound 8, 28-O-Succinoylbetulin] | 5.35 to 10.6 | 1.61 to 4.11 | 2 to 3 µM | 3 | IC50 (NTCP [1]; pH shift experiment, pH 5.5 (DMEM acidified with HCl), read-out: IC50 [3H]TC uptake inhibition at pH 5.5): 200 µM; IC50 (NTCP [1]; pH shift experiment, pH 7.4, read-out: IC50 [3H]TC uptake inhibition at pH 7.4): 8 µM; IC50 [3H]preS1 binding inhibition at pH 5.5 versus pH 7.4 (NTCP [2]; pH lowered from 7.4 to 5.5): did not change
C=C(C)[C@@H]1CC[C@]2(COC(=O)CCC(=O)O)CC[C@]3(C)[C@H](CC[C@@H]4[C@@]5(C)CC[C@H](OC(=O)CCC(=O)O)C(C)(C)[C@@H]5CC[C@]43C)[C@@H]12 [Compound 9, 3,28-Di-O-succinoylbetulin] | 3.11 to 5.02 | 2.94 to 10.1 | < 10 µM | 1 | 
C=C(C)[C@@H]1CC[C@]2(COC(=O)CC(C)(C)CC(=O)O)CC[C@]3(C)[C@H](CC[C@@H]4[C@@]5(C)CC[C@H](O)C(C)(C)[C@@H]5CC[C@]43C)[C@@H]12 [Compound 10, 28-O-(3,3-Dimethylglutaroyl)betulin] | 3 to 5.91 | 2.48 to 7.02 | < 10 µM | 1 | 
C=C(C)[C@@H]1CC[C@]2(C(=O)O)CC[C@]3(C)[C@H](CC[C@@H]4[C@@]5(C)CC[C@H](OC(=O)CC(C)(C)CC(=O)O)C(C)(C)[C@@H]5CC[C@]43C)[C@@H]12 [Compound 11, 3-O-(3,3-Dimethylglutaroyl)betulinic acid] | 3.08 to 4.53 | 3 to 5.21 |  | 1 | 
C=C(C)[C@@H]1CC[C@]2(COC(=O)CC(C)(C)CC(=O)O)CC[C@]3(C)[C@H](CC[C@@H]4[C@@]5(C)CC[C@H](OC(=O)CC(C)(C)CC(=O)O)C(C)(C)[C@@H]5CC[C@]43C)[C@@H]12 [Compound 12, 3,28-Di-O-(3,3-dimethylglutaroyl)betulin] | 4.17 to 10.7 | 4.97 to 10.1 |  | 1 | 
C=C(C)[C@@H]1CC[C@]2(COC3CCCCO3)CC[C@]3(C)[C@H](CC[C@@H]4[C@@]5(C)CC[C@H](O)C(C)(C)[C@@H]5CC[C@]43C)[C@@H]12 (stereo partly drawn) [Compound 13, 28-(Tetrahydro-2H-pyran-2-yl)betulin] | 116 to 628 | 9.34 to 19.5 | 11 to 50 µM | 19 | 
C=C(C)[C@@H]1CC[C@]2(COC(=O)c3cccnc3)CC[C@]3(C)[C@H](CC[C@@H]4[C@@]5(C)CC[C@H](O)C(C)(C)[C@@H]5CC[C@]43C)[C@@H]12 [Compound 14, 28-O-Nicotinoylbetulin] | 185 to 532 | 36.5 to 109 |  | 5 | 
C=C(C)[C@@H]1CC[C@]2(COC(=O)/C=C/c3ccccc3)CC[C@]3(C)[C@H](CC[C@@H]4[C@@]5(C)CC[C@H](O)C(C)(C)[C@@H]5CC[C@]43C)[C@@H]12 [Compound 15, 28-O-Cinnamoylbetulin] | 72.4 to 236 | 10.9 to 31.8 |  | 7 | 
C=C(C)[C@@H]1CC[C@]2(COC(=O)CCc3ccccc3)CC[C@]3(C)[C@H](CC[C@@H]4[C@@]5(C)CC[C@H](OC(=O)CCc6ccccc6)C(C)(C)[C@@H]5CC[C@]43C)[C@@H]12 [Compound 16, 3,28-Di-O-(dihydrocinnamoyl)betulin] | 176 to 1230 | 24.8 to 229 |  | 6 | 
C=C(C)[C@@H]1CC[C@]2(C=O)CC[C@]3(C)[C@H](CC[C@@H]4[C@@]5(C)CCC(=O)C(C)(C)[C@@H]5CC[C@]43C)[C@@H]12 [Compound 18, Betulonaldehyde] | 88.5 to 175 |  |  |  | 
C=C(C)[C@@H]1CC[C@]2(C(=O)O)CC[C@]3(C)[C@H](CC[C@@H]4[C@@]5(C)CC[C@H](OC(C)=O)C(C)(C)[C@@H]5CC[C@]43C)[C@@H]12 [Compound 21, 3-O-Acetylbetulinic acid] | 7.19 to 30.3 | 1.81 to 5.31 | 2 to 3 µM and < 10 µM | 5 | 
C=C(C)[C@@H]1CC[C@]2(CO)CC[C@]3(C)[C@H](CC[C@@H]4[C@@]5(C)CC[C@H](OC(C)=O)C(C)(C)[C@@H]5CC[C@]43C)[C@@H]12 [Compound 22, 3-O-Acetylbetulin] | 36.5 to 152 | 20.6 to 87.4 |  | 2 | 
C=C(C)[C@@H]1CC[C@]2(COC3CCCCO3)CC[C@]3(C)[C@H](CC[C@@H]4[C@@]5(C)CC[C@H](OC(C)=O)C(C)(C)[C@@H]5CC[C@]43C)[C@@H]12 (stereo partly drawn) [Compound 23, 3-O-Acetyl-28-(tetrahydro-2H-pyran-2-yl)betulin] | 119 to 947 | 11 to 114 |  | 10 | 
C=C(C)C1CCC2(COC(C)=O)CCC3(C)C(CCC4C5(C)CCC(OC(C)=O)C(C)(C)C5CCC43C)C12 (stereo not drawn) [Compound 24, 3,28-Di-O-acetylbetulin] | > 1000 | 52.6 to 756 | 199 µM | > 5 | [3H]TC transport inhibition (in words) (NTCP [1]; NTCP-HEK293 cells): no transport inhibition at all; IC50 (NTCP [1]; [7]): > 1000 µM
C=C(CO)C1CCC2(COC(C)=O)CCC3(C)C(CCC4C5(C)CCC(OC(C)=O)C(C)(C)C5CCC43C)C12 (stereo not drawn) [Compound 25, 3,28-Di-O-acetyl-29-hydroxybetulin] | > 1000 | 5.29 to 13 | < 10 µM and 8 µM |  | [3H]TC transport inhibition (in words) (NTCP [1]; NTCP-HEK293 cells): no transport inhibition at all; IC50 (NTCP [1]; [7]): > 1000 µM
CC(=O)OC[C@]12CC[C@@H](C3(C)CO3)[C@@H]1[C@H]1CC[C@@H]3[C@@]4(C)CC[C@H](OC(C)=O)C(C)(C)[C@@H]4CC[C@@]3(C)[C@]1(C)CC2 (stereo partly drawn) [Compound 26, 3,28-Di-O-acetyl-20,30-epoxybetulin] | 332 to 891 | 26.5 to 73 |  | 12 | 
CC1(COc2ccc(CC3SC(=O)NC3=O)cc2)CCCCC1 (stereo not drawn) [ciglitazone, reference compound] |  |  | 1.3 µM |  | 
